Assay results taken from US20230027854A1, “ISOXAZOLE DERIVATIVES TARGETING TACC3 AS ANTICANCER AGENTS” (A2A Pharmaceuticals, inc., priority 2019, published 2023).
Read-outs that look alike come from different tables or passages of the source.

Experiments:
JIMT-1 cells [1] = assay: Western blot of mitotic arrest, DNA damage and apoptosis markers; type: cell-based, human; settings: 24 hours, dose response
Description: JIMT-1, MDA-MB-436, MDA-MB-157 and BT-474 T-DM1R cell lines were tested with respect to their response to these three drugs. […] Although higher KHS101 doses was included, which were used by others (Campo & Breuer, 2018), an induction of these markers was only observed at very high doses.

[2] = Stability in human liver microsomes; type: in vitro ADME
TACC3 = TACC3 (Homo sapiens, UniProt Q9Y6A5); assay: Cellular thermal shift assay (CETSA) in intact JIMT-1 cells; type: binding; design: endogenous in cells; host or cells: JIMT-1; settings: 1 μM, 6 h
Description: Protein thermal melting curves are also showing a thermal shift between vehicle and compound 5 treated band intensities. This interaction was also validated with isothermal titration calorimetry (ITC). […] DARTS is a label free-strategy to identify potential direct protein targets for small molecules and is based on stabilization and protection from proteolysis of the target protein upon binding to small molecules (Lomenick, Jung et al. 2011, Pai, Lomenick et al. 2015).
After treatment, cell pellets were resuspended in Tris-buffered saline (TBS) containing protease and phosphatase inhibitors. The cell suspension was divided into 6 PCR tubes and heated for 5 min to 45, 46, 47, 48, 49, 50° C. Subsequently, cells were lysed by three repeated freeze-thaw cycles with liquid nitrogen. Soluble proteins were collected with centrifugation at 20,000 g for 20 min at 4° C. and analyzed by sodium dodecyl sulfate polyacrylamide gel electrophoresis (SDS-PAGE) followed by western blot analysis.

[3] = Stability in mouse liver microsomes; type: in vitro ADME
JIMT-1 cells [4] = assay: JIMT-1 cell growth inhibition / cell viability (SRB assay); type: cell-based; settings: Homo sapiens
Description: The ability of the compounds of the present disclosure to treat TACC3-mediated cancers, or associated symptoms or complications thereof, was determined using the following procedures. The compounds of the present disclosure were tested for their activity against cell death induction using a JIMT-1 cell line, which was a cell line having high level of TACC3. The concentration of each compound that was required for half-maximal inhibition of cell proliferation was calculated by a GraphPad Prism (GraphPad Software).

JIMT-1 cells [5] = assay: Immunofluorescence of aberrant spindle formation; type: cell-based, human; settings: highest dose, 12 h
Description: The presence of spindle defects activates the spindle assembly checkpoint (SAC) that further leads to mitotic arrest to provide the necessary time for repairing the spindle defects (Musacchio and Salmon 2007). […] To further test the contribution of an active SAC signaling to compound 5-induced mitotic arrest, DNA damage and cell death, we inhibited the SAC kinase, Mps1 using a specific inhibitor (TC Mps1 (Choi, Min et al. 2017)) in compound 5-treated cells, and analyzed the expression of relevant markers.
Immunofluorescence staining of JIMT-1 cells were performed as previously described (Cizmecioglu, Arnold et al. 2010). Basically, 1.5×10^5 JIMT-1 cells/well were seeded on glass coverslip in 6-well plates. […] Then, they are fixed with ice-cold methanol for 10 min at −20° C. Cells were then blocked with 3% BSA in PBS solution for 1 hour at RT and incubated with primary and secondary antibodies for 1 hour at RT. Cells were counter stained with DAPI for 5 min (0.01 μg/ml). Lastly, cover slides were mounted using ImmunoHistomounth (Santa Cruz). Images were taken with an upright fluorescent microscope equipped with DIC prisms (upright).

4T1-Luc2 = 4T1-Luc2 lung metastasis model; type: in vivo, mice
Description: Next, to examine the effects of TACC3 inhibition on metastatic growth, an aggressive murine mammary tumor cells, 4T1-Luc2 (luciferase labelled), were injected intravenously to immunocompetent female mice. […] Metastatic outgrowth was monitored with in vivo imaging system (IVIS) by measuring bioluminescence.
Highly aggressive and metastatic 4T1-Luc2 (luciferase labelled) cells were prepared in PBS as 1×10^6 cells/mouse and injected intravenously to Balb/c female mice. Metastasis development was monitored using in vivo imaging system (IVIS) and bioluminescence was quantified regularly. […] Survival was calculated when mice died.

HCT-116 = settings: 25-50 mg/kg daily and orally
Description: (§1) Female nude mice and Balb/c mice were injected with human colon carcinoma cell line, HCT-116, and murine colon carcinoma cell line, CT26, respectively, into flank region of mice.
(§2) 4×10^6 HCT-116 and 1×10^6 cells were prepared either in matrigel:PBS or in PBS, respectively, and injected subcutaneously into flank region of mice. […] Mice body weight was measured regularly.

CT26 = settings: 25-50 mg/kg daily and orally
Description: as §1, §2

[6] = Description: Mice body weight was measured regularly, and organs were collected for determination of possible toxicity.

## COc1ccc(-c2cc(Nc3ccnc(N4CCOCC4)n3)on2)cc1 [Compound 5]
JIMT-1 cells [1]
  induction of mitotic arrest, DNA damage and apoptosis markers: dose-dependent manner
[2]
  stability in human liver microsomes: low stability
TACC3
  stabilization of cellular TACC3 upon temperature increase: considerably stabilized cellular TACC3
[3]
  stability in mouse liver microsomes: low stability
JIMT-1 cells [4]; JIMT-1 cells, read-out: IC50
  IC50: 120 nM
JIMT-1 cells [4]; cultured cells, in-house screening on JIMT-1, read-out: IC50, suppresses cell growth
  IC50: 190 nM
JIMT-1 cells [5]
  frequency of multipolar spindles: 73.4%
4T1-Luc2; 50 mg/kg daily orally
  metastatic growth compared to vehicle: impair metastatic growth
  overall survival: significantly improved mice overall survival
4T1-Luc2; 50 mg/kg every day orally, vehicle 19 days
  median survival: 28 days
HCT-116
  tolerability: well tolerated
  tumor growth: significantly impaired tumor growth
CT26
  tolerability: well tolerated
  tumor growth: significantly impaired tumor growth
[6]; 100 mg/kg daily for 7 days
  body weight and observable toxicity: did not affect body weight
[6]; 500 mg/kg once
  organ toxicity: no organ toxicity was observable
[6]; 500 mg/kg once, 24 h after drug treatment
  loss of body weight: 10%
